Tests used:
[1] = target: T1, recombinant human estradiol receptors (rhER) alpha (α) (Homo sapiens, UniProt P03372); experiment: competitive binding assay, displacement of [3H] estradiol radioligand from rhER alpha; conditions: text statements, tested up to 2.5×E-4 M
T1 sequence (P03372 1-595): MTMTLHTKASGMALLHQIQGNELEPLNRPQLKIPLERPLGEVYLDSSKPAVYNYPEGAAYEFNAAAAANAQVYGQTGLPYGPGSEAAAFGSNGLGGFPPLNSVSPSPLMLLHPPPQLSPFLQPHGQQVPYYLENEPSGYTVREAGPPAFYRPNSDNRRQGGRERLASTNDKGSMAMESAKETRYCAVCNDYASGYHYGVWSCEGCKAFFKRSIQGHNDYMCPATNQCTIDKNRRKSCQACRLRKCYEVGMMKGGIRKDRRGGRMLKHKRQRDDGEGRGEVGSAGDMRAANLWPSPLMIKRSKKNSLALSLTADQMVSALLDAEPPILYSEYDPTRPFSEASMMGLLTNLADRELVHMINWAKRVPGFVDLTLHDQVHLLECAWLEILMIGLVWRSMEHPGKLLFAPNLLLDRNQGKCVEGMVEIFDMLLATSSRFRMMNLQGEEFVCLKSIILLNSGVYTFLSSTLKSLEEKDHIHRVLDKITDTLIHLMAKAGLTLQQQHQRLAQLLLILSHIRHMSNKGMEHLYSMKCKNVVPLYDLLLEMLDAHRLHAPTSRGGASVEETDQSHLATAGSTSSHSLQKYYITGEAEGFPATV

[2] = target: recombinant human estradiol receptors (rhER) beta 1 (β1) (Homo sapiens, UniProt Q92731); experiment: competitive binding assay, displacement of [3H] estradiol radioligand from rhER beta 1; conditions: tested up to 2.5×E-4 M

| Compound | estradiol binding / displacement at the alpha estradiol receptor (in words) [1] | estradiol binding / displacement at the beta estradiol receptor (in words) ([2]; text statements) | other results |
| --- | --- | --- | --- |
| CC(C)(c1ccccc1)c1ccc(O)cc1 [B, p-Cumyl Phenol, reference compound] | displace estradiol at low concentrations | displace estradiol at low concentrations |  |
| O=C1c2ccccc2C(c2ccc(O)cc2)(c2ccc(O)cc2)N1c1ccccc1 [Example 3, N-Phenyl Phenolphthalein Bisphenol] | no detectible estradiol displacement | no detectible estradiol displacement | estradiol binding / displacement at the alpha estradiol receptor (in words) ([1]; listed as N-phenyl phenolphthalein bisphenol): no estradiol binding; estradiol binding / displacement at the beta estradiol receptor (in words) ([2]; text statements, listed as N-phenyl phenolphthalein bisphenol): no estradiol binding |
| Oc1cccc(O)c1 [Example 4, Resorcinol] | no detectible estradiol displacement | no detectible estradiol displacement | estradiol binding / displacement at the alpha estradiol receptor (in words) ([1]; listed as resorcinol): no estradiol binding; estradiol binding / displacement at the beta estradiol receptor (in words) ([2]; text statements, listed as resorcinol): no estradiol binding |
| Cc1cc(O)ccc1O [Example 8, Methyl Hydroquinone] |  | no alpha or beta estradiol displacement | estradiol binding / displacement at the beta estradiol receptor (in words) ([2]; text statements, listed as methyl hydroquinone): no estradiol binding |
| Cc1cc(C2(c3ccc(O)c(C)c3)CCCCC2)ccc1O [G, Dimethyl Cyclohexyl Bisphenol, reference compound] | displace estradiol at low concentrations | displace estradiol at low concentrations |  |
| CC(C)(c1ccc(O)cc1)c1cccc(C(C)(C)c2ccc(O)cc2)c1 [K, Bisphenol M, reference compound] | displace estradiol at low concentrations | displace estradiol at low concentrations |  |
| O=C1OC(c2ccc(O)cc2)(c2ccc(O)cc2)c2ccccc21 [O, Phenolphthalein, reference compound] |  | estradiol displacement at low concentration |  |
| Biphenol [Example 6] | no displacement of the estradiol | no estradiol binding | estradiol binding / displacement at the alpha estradiol receptor (in words) ([1]; listed as biphenol): no estradiol binding |
| Bis Hydroxy Phenyl Menthane [reference compound] | displace estradiol at low concentrations | displace estradiol at low concentrations |  |
| Bisphenol Acetophenone [D, reference compound] | displace estradiol at low concentrations |  |  |
| Dihydroxy Diphenyl Ether [Example C, reference compound] |  | displace estradiol at low concentrations |  |
| Diphenolic Acid Methyl Ester [F, reference compound] | displace estradiol at low concentrations | displace estradiol at low concentrations |  |
| Fluorenone Bis-o-Cresol [reference compound] |  | displace estradiol at low concentrations |  |
| Tetra Methyl BPA [Example 1] |  | no detectible estradiol displacement | estradiol binding / displacement at the beta estradiol receptor (in words) ([2]; listed as tetra methyl bisphenol-A): no estradiol binding |

— patent publication US8686075B2, “Polysulfone compositions and methods for the manufacture and use thereof” (SABIC Innovative Plastics IP B.V., priority 2011, dated 2014)
